According to US20140066439A1, “OSTEOCLAST ACTIVITY” (Katholieke Universiteit Leuen, K.U.Leuven R&D, priority 2010, published 2014):
Entries after “also recorded” stand apart in the source; their conditions may differ.

Assays:
Format in all cases: cell-based, human
[1] = tested on: PBMCs from critically ill patients; test: Osteoclast formation (TRAP staining, day 14) in PBMCs from critically ill patients cultured in critically ill patient serum; details: low doses, compounds added d1-d14, TRAP staining at day 14
Text: We have determined that the treatment of patient's peripheral blood mononuclear cell (PBMCs), in particular, PBMCs of critically ill patients with autophagy inducers can be used to suppress enhanced osteoclastogenesis. It turned out that a particular advantage is that such autophagy inducers can be targeted to particularly treat the PBMCs.

p62 protein = test: Autophagy marker p62 protein expression (western blot) in PBMCs/osteoclasts; details: healthy PBMCs, RANKL/MCSF stimulated, spermidine 2×10^-8 M, 14 days
Text: We also measured markers of autophagy in the cell lysates from these experiments. The concentration of proteins we obtained were quite low, and there was insufficient protein to measure anything by western blotting in the “sick spermidine” group. […] There was no effect of spermidine on the healthy PBMCs (FIG. 6).
FIG. 6 concerns autophagy marker p62 protein expression in healthy and sick PBMCs/osteoclasts (RANKL/MCSF stimulated) and the effect of spermidine on healthy PBMCs/osteoclasts. Healthy and sick PBMCs were cultured for 14 days with or without spermidine (2×10^−8 M) in 6 well plates (5×10^6 cells/well). After 14 days, protein was extracted using the Ambion PARIS extraction kit (Applied Biosystems), and proteins quantified using the BC Protein Assay (Thermo Fischer Scientific). (A) 5 ug of protein was subjected to 15% Bis-tris gelelectrophoresis, transferred to nitrocellulose membrane and incubated at 4° C. overnight in Anti-p62 (Novus Biologicals; 1:1000). p62 protein was detected by ECL following incubation with AntiMouseIgG (DAKO; 1:1000). GAPDH was used as a loading control. (B) p62 relative expression was quantified with Image QuantTL (Amersham Biosciences) and normalized to GAPDH (n=3; ***p≦0.05 vs. Healthy).

[2] = tested on: Peripheral Blood Mononuclear Cells (PBMCs); test: Osteoclast formation: TRAP positive multinuclear cells in PBMC cultures; details: for TRAP positive multinuclear cells (osteoclast formation): spermidine 10^-8 M; for spontaneous osteoclast formation: 14 days
Description: PBMCs were isolated from the whole blood of patients or healthy volunteers by means of Ficoll-Paque Plus (GE Healthcare, Brussels, Belgium) density gradient centrifugation according to the manufacturer's instructions. Heparinized whole blood (20 ml) was drawn from each individual and diluted 1:1 with alpha minimal essential medium (α-MEM; Lonza, Braine-l'Alleud, Belgium), before being layered over Ficoll-Paque and centrifuged at 450 g for 40 min. The mononuclear cell interface was then removed and washed 3 times with α-MEM. Cells were stored in liquid nitrogen until use and seeded at a density of 5×10^5 cells per well. All cultures were performed in quadruplicate in 16-well culture slides (VWR, Leuven, Belgium) or 16-well BD Biocoat Osteologic Slides (BD Biosciences), and cells were cultured in α-MEM supplemented with 10% FBS, 100 IU/ml penicillin and 100 μg/ml streptomycin (“complete medium”), or complete medium plus M-CSF (25 ng/ml) and RANKL (30 ng/ml). In order to study the effect of circulating factors on osteoclast formation, PBMCs were also grown in α-MEM containing 10% human healthy volunteer serum (HS) or 10% patient serum (PS), in the presence or absence of M-CSF (25 ng/ml) and RANKL (30 ng/ml). For cytokine neutralization experiments, PBMCs were grown in α-MEM/10% PS for 14 days, in the presence of varying concentrations of anti-TNF-α and/or anti-IL-6 (R&D Systems, Abingdon, UK). All cultures were maintained at 37° C. in a humidified atmosphere with 5% CO2.
(§1) After 14 days, PBMCs were fixed and stained for the osteoclast-specific marker tartrate-resistant acid phosphate (TRAP), and the nuclear marker DAPI, as previously described. The formation of TRAP positive multi-nucleated (more than three nuclei) cells was quantified by counting the multi-nuclear stained cells in each well (D'Amelio P, Grimaldi A, Pescarmona G P, Tamone C, Roato I, Isaia G. Spontaneous osteoclast formation from peripheral blood mononuclear cells in postmenopausal osteoporosis. FASEB J. 2005; 19(3):410-2.). Filamentous (F)-actin rings representing active osteoclasts were visualized after staining of the actin cytoskeleton with the toxin phalloidin conjugated to FITC, and quantified by counting, as described above. […] Lacunar resorption was determined by measuring the total area unstained by Von-Kossa (total area resorbed) using ImageJ software (National Institute of Health, MD, USA), and was expressed as the total percentage of the surface reabsorbed. […]

[3] = tested on: Peripheral Blood Mononuclear Cells (PBMCs); test: Osteoclast resorption of a hydroxyapatite layer (Von Kossa, ImageJ) by PBMC-derived osteoclasts; details: 14 days; for osteoclast activity (resorption): healthy PBMCs stimulated with RANKL and M-CSF, dose response, 10^-6, 10^-7 and 10^-8 M
Description: PBMCs were isolated from the whole blood of patients or healthy volunteers by means of Ficoll-Paque Plus (GE Healthcare, Brussels, Belgium) density gradient centrifugation according to the manufacturer's instructions. Heparinized whole blood (20 ml) was drawn from each individual and diluted 1:1 with alpha minimal essential medium (α-MEM; Lonza, Braine-l'Alleud, Belgium), before being layered over Ficoll-Paque and centrifuged at 450 g for 40 min. The mononuclear cell interface was then removed and washed 3 times with α-MEM. Cells were stored in liquid nitrogen until use and seeded at a density of 5×10^5 cells per well. All cultures were performed in quadruplicate in 16-well culture slides (VWR, Leuven, Belgium) or 16-well BD Biocoat Osteologic Slides (BD Biosciences), and cells were cultured in α-MEM supplemented with 10% FBS, 100 IU/ml penicillin and 100 μg/ml streptomycin (“complete medium”), or complete medium plus M-CSF (25 ng/ml) and RANKL (30 ng/ml). […]
as §1

Nc1ncn([C@@H]2O[C@H](CO)[C@@H](O)[C@H]2O)c(=O)n1 [5-azacytidine]
critical illness enhanced osteoclast formation [1]: inhibiting effect

CO[C@H]1C[C@@H]2CC[C@@H](C)[C@@](O)(O2)C(=O)C(=O)N2CCCC[C@H]2C(=O)O[C@H]([C@H](C)C[C@@H]2CC[C@@H](OCCO)[C@H](OC)C2)CC(=O)[C@H](C)/C=C(\C)[C@@H](O)[C@@H](OC)C(=O)[C@H](C)C[C@H](C)/C=C/C=C/C=C/1C [Everolimus, 40-O-(2-hydroxyethyl)-rapamycin]
critical illness enhanced osteoclast formation [1]: inhibiting effect

CC(CN1c2ccccc2Sc2ccccc21)N(C)C (stereo not drawn) [Promethazine, 10-(2-dimethylaminopropyl)phenothiazine]
critical illness enhanced osteoclast formation [1]: inhibiting effect

NCCCCNCCCN [Spermidine]
critical illness enhanced osteoclast formation [1]: inhibiting effect
p62 protein expression (p62 protein): no effect
TRAP positive multinuclear cells (osteoclast formation) ([2]; healthy PBMCs stimulated with RANKL and MCSF, day 14): did not, however, have a significant effect
spontaneous osteoclast formation ([2]; healthy unstimulated (no RANKL or MCSF) PBMCs): no effect
TRAP positive multinuclear cells (osteoclast formation) ([2]; sick (critically ill) PBMCs stimulated with RANKL and MCSF, day 14, vs control sick PBMCs): significant reduction; also recorded: completely blocked
spontaneous osteoclast formation ([2]; sick unstimulated (no RANKL or MCSF) PBMCs, increase vs healthy): completely knocked down
osteoclast activity (resorption) [3]: reduced
osteoclast activity (resorption) ([3]; listed as spermidine): inhibits
osteoclast resorption of hydroxyapatite layer ([3]; sick stimulated (RANKL/MCSF) PBMCs, increase vs healthy, spermidine 2×10^-8 M): reduced; also recorded: completely blocked
